# In ChEMBL document CHEMBL1124623, “2,4-Diamino-5-benzylpyrimidines and analogues as antibacterial agents. 12. 1,2-Dihydroquinolylmethyl analogues with high activity and specificity for bacterial dihydrofolate reductase” (J Med Chem, 1989):
# What was measured:
# [1] = Dissociation constant of compound at 20 degree C; assay type: physicochemical
# [2] = molecular target: T1, Dihydrofolate reductase (Rattus norvegicus, UniProt Q920D2)
# T1 sequence (Q920D2 whole entry): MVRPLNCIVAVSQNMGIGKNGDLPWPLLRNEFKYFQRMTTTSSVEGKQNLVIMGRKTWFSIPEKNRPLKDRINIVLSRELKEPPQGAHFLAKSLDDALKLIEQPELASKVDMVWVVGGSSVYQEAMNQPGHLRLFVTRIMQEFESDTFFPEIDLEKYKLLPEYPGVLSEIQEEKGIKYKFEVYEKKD
# [3] = test system: Proteus vulgaris; assay: Comparative in vitro antibacterial activity of compound with trimethoprim against Proteus vulgaris CN329; assay type: functional
# [4] = test system: Streptococcus pyogenes; assay: Comparative in vitro antibacterial activity of compound with trimethoprim against Streptococcus pyogenes CN10; assay type: functional
# [5] = test system: Klebsiella pneumoniae; assay: Comparative in vitro antibacterial activity of compound with trimethoprim against Klebsiella pneumoniae CN3632; assay type: functional
# [6] = test system: Klebsiella aerogenes; assay: Comparative in vitro antibacterial activity of compound with trimethoprim against Enterobacter aerogenes 2200/86; assay type: functional
# [7] = test system: Salmonella typhimurium; assay: Comparative in vitro antibacterial activity of compound with trimethoprim against Salmonella Typhimurium S 8587; assay type: functional, Salmonella enterica subsp. enterica serovar Typhimurium; conditions: Salmonella enterica
# [8] = test system: Escherichia coli; assay: Comparative in vitro antibacterial activity of compound with trimethoprim against Escherichia coli CN314; assay type: functional
# [9] = test system: Enterococcus faecalis; assay: Comparative in vitro antibacterial activity of compound with trimethoprim against Streptococcus faecalis CN478; assay type: functional
# [10] = test system: Staphylococcus aureus; assay: Comparative in vitro antibacterial activity of compound with trimethoprim against Staphylococcus aureus CN491; assay type: functional
# [11] = test system: Vibrio cholerae; assay: Comparative in vitro antibacterial activity of compound with trimethoprim against Vibrio cholerae ATCC 14035; assay type: functional
# [12] = test system: Shigella flexneri; assay: Comparative in vitro antibacterial activity of compound with trimethoprim against Shigella flexneri CN6007; assay type: functional
# [13] = test system: Streptococcus agalactiae; assay: Comparative in vitro antibacterial activity of compound with trimethoprim against Streptococcus agalactiae CN1143; assay type: functional
# [14] = Comparative in vitro antibacterial activity of compound with trimethoprim against Salmonella typhi CN512; assay type: functional, salmonella typhosa
# [15] = molecular target: T1, Dihydrofolate reductase; assay: Inhibitory activity against Dihydrofolate reductase in rat liver; assay type: functional, tissue-based; conditions: read-out: I50
structure (smiles),measurement,setting,value
CCN1CCC(C)c2ccccc21 (configuration not stated),pKa,[1],4.18
COc1cc(Cc2cnc(N)nc2N)cc2c1NCCC2C (configuration not stated),IC50,[2],33 µM
CC1=CC(C)(C)Nc2ccc(Cc3cnc(N)nc3N)cc21,IC50,[2],240 µM
CCOc1cc(Cc2cnc(N)nc2N)cc2c1NC(C)(C)C=C2C,IC50,[2],250 µM
COc1cc(Cc2cnc(N)nc2N)cc2c1NC(C)(CF)C=C2CF (configuration not stated),IC50,[2],230 µM
same,MIC,[3],10 µg/mL
same,MIC,[4],0.1 µg/mL
same,MIC,[5],10 µg/mL
same,MIC,[6],30 µg/mL
same,MIC,[7],3 µg/mL
same,MIC,[8],10 µg/mL
same,MIC,[9],0.3 µg/mL
same,MIC,[10],0.3 µg/mL
same,MIC,[11],3 µg/mL
same,MIC,[12],10 µg/mL
same,MIC,[13],0.3 µg/mL
same,MIC,[14],10 µg/mL
COc1cccc2c1N(C)C(C)(C)C=C2C,pKa,[1],6.82
COc1cc(Cc2cnc(N)nc2N)cc2c1N(C)CCC2C (configuration not stated),pKa,[1],6.51
same,IC50,[15],250 µM
COc1cc(Cc2cnc(N)nc2N)cc2c1NC(C)(C)CC2C (configuration not stated),IC50,[2],430 µM
same,MIC,[3],> 100 µg/mL
same,MIC,[4],1 µg/mL
same,MIC,[6],10 µg/mL
same,MIC,[7],30 µg/mL
same,MIC,[8],30 µg/mL
same,MIC,[9],1 µg/mL
same,MIC,[10],3 µg/mL
same,MIC,[11],3 µg/mL
same,MIC,[12],30 µg/mL
same,MIC,[13],1 µg/mL
same,MIC,[14],100 µg/mL
CC1=CC(C)(C)Nc2c1cc(Cc1cnc(N)nc1N)c1cccnc21,MIC,[3],> 100 µg/mL
same,MIC,[4],0.03 µg/mL
same,MIC,[5],> 300 µg/mL
same,MIC,[6],10 µg/mL
same,MIC,[7],100 µg/mL
same,MIC,[8],30 µg/mL
same,MIC,[9],0.3 µg/mL
same,MIC,[10],0.1 µg/mL
same,MIC,[11],1 µg/mL
same,MIC,[12],100 µg/mL
same,MIC,[13],0.3 µg/mL
same,MIC,[14],30 µg/mL
CC1CC(C)(C)Nc2ccc(Cc3cnc(N)nc3N)cc21 (configuration not stated),IC50,[2],300 µM
COc1cccc2c1NC(C)(C)C=C2C,pKa,[1],3.36
COc1cc(Cc2cnc(N)nc2N)cc2c1N(CCOC(C)=O)C(C)(C)C=C2C,IC50,[2],164 µM
